This note sets out measurements from patent US9120795B2, “Crystalline form of a β-lactamase inhibitor” (Cubist Pharmaceuticals, Inc., priority 2013, dated 2015).

As a reminder, the MIC is the least concentration at which growth counts as inhibited. The MIC50 is the lowest concentration that inhibits either 50% of growth or 50% of the strains tested, depending on the study. As a reminder, the MIC90 is an inhibitory concentration at the 90% level, which refers to growth in some studies and to a panel of isolates in others.

For one test, the system named is Cfr.568 (AmpC, clinical). Briefly: Standard BLI potentiation MIC assay. Format: cell-based, Citrobacter spp. The following applies: Citrobacter, read-out: MIC of β-lactam with BLI. Here is the method:
(§1) The experimental protocol was performed according to Clinical and Laboratory Standards Institute (CLSI) guidelines with modifications as described below (CLSI guidelines can be derived from the CLSI document M07-A9 published in January 2012: “Methods for Dilution Antimicrobial Susceptibility Tests for Bacteria That Grow Aerobically; Approved Standard-Ninth Edition”).
(§2) To prepare for MIC testing, frozen glycerol stocks of clinical isolates (Klebsiella pneumoniae, Eschericia coli, Enterobacter spp, Citrobacter spp, or Pseudomonas aeruginosa) were used to streak for isolated colonies on rich, non-selective, tryptic soy agar containing 5% sheep's blood (TSAB). Frozen glycerol stocks of laboratory engineered, isogenic E. coli strains, which contain cloned β-lactamase expressing plasmids were used to streak for isolated colonies on rich, selective LB agar supplemented with 25 μg/mL tetracycline to maintain the plasmid. All strains were incubated at 37° C. for 18-24 hrs. […]
(§3) Plates were incubated for 18-20 hours at 37° C. with aeration (200 rpm). Following incubation, growth was confirmed visually placing plates over a viewing apparatus (stand with a mirror underneath) and then OD600 was measured using a SpectraMax 340PC384 plate reader (Molecular Devices, Sunnyvale, Calif.). Growth was defined as turbidity that could be detected with the naked eye or achieving minimum OD600 of 0.1. […]

The subject of a further test is Eco isogenic, OXA-15. Briefly: Synergy MIC (sMIC) assay. Conditions: OXA-15, isogenic Eco; CXA-101 at 4 μg/mL. Type of test: cell-based, E. coli. Here is the method: (§4) The synergy MIC (sMIC) assay determines the concentration of the BLI required to potentiate the activity of a fixed concentration of a β-lactam antibiotic against β-lactamase producing bacterial strains. The experimental protocol was performed according to Clinical and Laboratory Standards Institute (CLSI) guidelines with modifications as described below (CLSI guidelines can be derived from the CLSI document M07-A9 published in January 2012: “Methods for Dilution Antimicrobial Susceptibility Tests for Bacteria That Grow Aerobically; Approved Standard-Ninth Edition”). The assay is set-up by serially diluting the BLI across 11 of the 12 wells in each row of a 96-well broth microdilution assay plate, adding the β-lactam at a fixed concentration to all wells in the assay plate, inoculating the assay plate with bacterial strains, and determining the lowest concentration of BLI required to inhibit overnight bacterial growth.
(§5) To prepare for MIC testing, frozen glycerol stocks of clinical isolates (Klebsiella pneumoniae, Eschericia coli, Enterobacter spp, Citrobacter spp, or Pseudomonas aeruginosa) were used to streak for isolated colonies on rich, non-selective, tryptic soy agar containing 5% sheep's blood (TSAB). Frozen glycerol stocks of laboratory engineered, isogenic E. coli strains, which contain cloned β-lactamase expressing plasmids were used to streak for isolated colonies on rich, selective LB agar supplemented with 25 μg/mL tetracycline to maintain the plasmid. All strains were incubated at 37° C. for 18-24 hrs.
(§6) On the day of testing, primary cultures were started by scraping off 5-10 colonies from the TSAB plates containing clinical strains or the tetracycline supplemented LB plates containing engineered strains. The clinical strain material was suspended in ˜5 mL of cation adjusted Mueller Hinton Broth (CAMHB) in 14 mL culture tubes. The engineered strain material was suspended in CAMHB (supplemented with tetracycline at 25 μg/mL) in 14 mL culture tubes. All strains were incubated at 37° C. with aeration (200 rpm) for ˜2 hrs until the OD600 was ≧0.1.
(§7) The two compound components of the assay were each prepared in CAMHB and added to the 96-well broth microdilution assay plates. 50 μL of the BLI was added to each well of the assay plate in 2-fold dilutions with final concentrations ranging from 128 to 0.13 μg/mL. 25 μL of the β-lactam was added to all wells in the broth microdilution plates at a final concentration of 4 μg/mL. Inoculum cultures were prepared by standardizing the primary cultures to OD600=0.1 and then adding 20 μL of the adjusted primary culture per 1 mL CAMHB for clinical strains or CAMHB (supplemented with tetracycline at 100 μg/mL) for isogenic strains, so that the final inoculum density was ˜10^5 colony forming units per milliliter. Diluted inoculum cultures were used to inoculate 25 μL per well in 96-well broth microdilution assay plates. […]
(§8) Plates were incubated for 18-20 hours at 37° C. with aeration (200 rpm). Following incubation, growth was confirmed visually placing plates over a viewing apparatus (stand with a mirror underneath) and then OD600 was measured using a SpectraMax 340PC384 plate reader (Molecular Devices, Sunnyvale, Calif.). Growth was defined as turbidity that could be detected with the naked eye or achieving minimum OD600 of 0.1. sMIC values were defined as the lowest concentration producing no visible turbidity. […]

A further test concerns Eco isogenic, KPC-2. The test is described as follows: Synergy MIC (sMIC) assay. Type of test: cell-based, E. coli. Conditions: KPC-2, isogenic Eco; CXA-101 at 4 μg/mL. As for the experimental part:
as §4, §5, §6, §7, §8

The subject of another test is Eco isogenic, P99. Briefly: Synergy MIC (sMIC) assay. Type of test: cell-based, E. coli. Conditions: CXA-101 at 4 μg/mL. Here is the method: as §4, §5, §6, §7, §8
Another test relates to Eco isogenic, CTX-M-15. The test is described as follows: Synergy MIC (sMIC) assay. Format: cell-based, E. coli. Conditions: CTX-M-15, isogenic Eco; CXA-101 at 4 μg/mL. Here is the method: as §4, §5, §6, §7, §8
The next test has as its system Eco isogenic, SHV-12. Briefly: Synergy MIC (sMIC) assay. Type of test: cell-based, E. coli. Conditions: SHV-12, isogenic Eco; CXA-101 at 4 μg/mL. As for the experimental part:
as §4, §5, §6, §7, §8

In test [1] the test system is Panel of Isogenic and Clinical Strains Expressing β-Lactamases. Briefly: Standard BLI potentiation MIC assay, whole panel. Format: cell-based. Here is the method:
as §1, §2, §3

For the molecule `O=C1N2C[C@@H](CC[C@H]2c2nnco2)N1OS(=O)(=O)[O-].[Na+]` [Hydrate 1, sodium (2S,5R)-2-(1,3,4-oxadiazol-2-yl)-7-oxo-1,6-diazabicyclo[3.2.1]octan-6-yl sulfate], the MIC in the test on Cfr.568 (AmpC, clinical) lay within 1 to 2 µg/mL. Also, the sMIC entry with Eco isogenic, OXA-15 is on record as “B (B = 1-2 μg/mL)”; in the test with Eco isogenic, KPC-2, “AA (AA = <0.25 μg/mL)”; in the test with Eco isogenic, P99, “AA (AA = <0.25 μg/mL)”; in the test with Eco isogenic, CTX-M-15 it was “A (A = 0.25-0.5 μg/mL)”; in the test on Eco isogenic, SHV-12 it was “B (B = 1-2 μg/mL)”. Besides, the MIC50 in test [1] was 1 to 2 µg/mL. For the same molecule, the MIC90 in test [1] fell in the range of 1 to 2 µg/mL.
